Test results reported in US12552755B2, “Cinnamic amide derivative having FXR activating effect, pharmaceutical composition containing the same as active ingredient, and method for preparing the same” (KYUNGSUNG UNIVERSITY INDUSTRY COOPERATION FOUNDATION, priority 2019, dated 2026).

Target: T1, farnesol X receptor (FXR) (Homo sapiens, UniProt Q96RI1)
T1 construct: endogenous in cells; host or cells: HepG2
T1 sequence (Q96RI1 1-486): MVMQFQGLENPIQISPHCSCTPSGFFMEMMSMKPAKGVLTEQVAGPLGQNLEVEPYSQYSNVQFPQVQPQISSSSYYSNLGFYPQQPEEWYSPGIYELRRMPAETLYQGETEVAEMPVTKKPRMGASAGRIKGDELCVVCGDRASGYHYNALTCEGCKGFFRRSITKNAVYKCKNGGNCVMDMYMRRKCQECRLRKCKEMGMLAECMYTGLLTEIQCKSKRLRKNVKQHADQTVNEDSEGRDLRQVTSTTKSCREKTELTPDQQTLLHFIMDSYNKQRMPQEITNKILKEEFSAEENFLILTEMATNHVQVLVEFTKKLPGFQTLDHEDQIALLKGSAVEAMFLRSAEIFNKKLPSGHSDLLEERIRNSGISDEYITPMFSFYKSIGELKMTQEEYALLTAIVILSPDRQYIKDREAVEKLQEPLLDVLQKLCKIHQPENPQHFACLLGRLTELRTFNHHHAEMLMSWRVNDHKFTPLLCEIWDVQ
Experiment: Farnesol X receptor (FXR) reporter gene assay (dual luciferase) in HepG2 cells
Type: cell-based
Conditions: for fold induction at 10 µM: HepG2 cells, drug treatment 24 hours, firefly/renilla luciferase ratio, Con = 1.00; for FXR activating effect compared with GW4064: statement on Table 4 data
Description: HepG2 cells were purchased from ATCC (Manassas, VA, USA) and cultured in Dulbecco's modified Eagle's medium (DMEM; Hyclone) containing 10% fetal bovine serum (FBS, Hyclone, Logan, UT, USA), 50 units/mL penicillin (Hyclone) and 50 μg/mL streptomycin (Hyclone). All cells were cultured to have a confluency of about 80% to 90% under the conditions of 37° C. and 5% Co2.
In order to measure FXR transcription factor activity, HepG2 cells (1×10^5 cells/well) were cultured in a 48-well cell culture plate (SPL Life Science Co., Gyeonggido, Korea) for 20 hours and then transduced using Lipofectamin L3000 (Invitrogen, San Diego, CA, USA). Luciferase is an enzyme that catalyzes light-emitting reactions. A plasmid in which the firefly luciferase gene was fused to farnesol X receptor (FXR) and a plasmid in which the renilla luciferase gene was fused to thymidine kinase (TK) were used for transduction. Reacted were 25 μL of serum and antibiotic-free Opti-MEM® (Life Technologies, Grand Island, NY) and 0.5 μL of Lipofectamin L3000 per 0.5 μg of FXR-firefly luciferase plasmid and 10 ng of TK-renilla luciferase plasmid, and the cells were reacted with the reaction mixture for 24 hours. Thereafter, DMEM medium containing 0.1% serum was treated with a drug for 24 hours. After the reaction was completed, the drug-treated culture medium was discarded, and lysis buffer was added at 0.4 ml/well to remove the cells, then the cells were dispensed into a 96-well white plate (SPL Life Science Co.), and the luminescence level was measured using the Dual-glo Luciferase Assay System (Promega, Madison, WI, USA). For the firefly luciferase activity (to see the level of FXR expression) and renilla luciferase activity (to provide a reference value by showing constant expression), the luminescence level was measured using the GloMax Multi Detection System (Promega) and then the relative ratio (firefly luciferase activity/renilla luciferase activity) was calculated.

Row | SMILES | fold induction at 10 µM | FXR activating effect compared with GW4064
1 | Cc1onc(-c2c(Cl)cccc2Cl)c1COc1ccc(/C=C/C(=O)N[C@H](C(=O)O)C(C)C)cc1 [KS-035, (E)-(3-(4-((3-(2,6-dichlorophenyl)-5-methylisoxazol-4-yl)methoxy)phenyl)acryloyl)-L-valine] | 1.65 | 
2 | Cc1onc(-c2ccccc2)c1COc1ccc(/C=C/C(=O)N[C@H](C(=O)O)C(C)C)cc1 [KS-036, (E)-(3-(4-((5-methyl-3-phenylisoxazol-4-yl)methoxy)phenyl)acryloyl)-L-valine] | 1.24 | 
3 | COC(=O)[C@H](Cc1ccccc1)NC(=O)/C=C/c1ccc(OCc2c(-c3c(Cl)cccc3Cl)noc2C(C)C)cc1 [KS-037, methyl (E)-(3-(4-((3-(2,6-dichlorophenyl)-5-isopropylisoxazol-4-yl)methoxy)phenyl)acryloyl)-L-phenylalaninate] | 7.95 | superior to GW4064
4 | COC(=O)[C@H](Cc1ccccc1)NC(=O)/C=C/c1ccc(OCc2c(-c3c(Cl)cccc3Cl)noc2C)cc1 [KS-038, methyl (E)-(3-(4-((3-(2,6-dichlorophenyl)-5-methylisoxazol-4-yl)methoxy)phenyl)acryloyl)-L-phenylalaninate] | 2.21 | 
5 | COC(=O)[C@H](Cc1ccccc1)NC(=O)/C=C/c1ccc(OCc2c(-c3ccccc3)noc2C)cc1 [KS-039, methyl (E)-(3-(4-((5-methyl-3-phenylisoxazol-4-yl)methoxy)phenyl)acryloyl)-L-phenylalaninate] | 1.06 | 
6 | CC(C)c1onc(-c2c(Cl)cccc2Cl)c1COc1ccc(/C=C/C(=O)N[C@@H](Cc2ccccc2)C(=O)O)cc1 [KS-040, (E)-(3-(4-((3-(2,6-dichlorophenyl)-5-isopropylisoxazol-4-yl)methoxy)phenyl)acryloyl)-L-phenylalanine] | 9 | superior to GW4064
7 | Cc1onc(-c2c(Cl)cccc2Cl)c1COc1ccc(/C=C/C(=O)N[C@@H](Cc2ccccc2)C(=O)O)cc1 [KS-041, (E)-(3-(4-((3-(2,6-dichlorophenyl)-5-methylisoxazol-4-yl)methoxy)phenyl)acryloyl)-L-phenylalanine] | 3.23 | 
8 | Cc1onc(-c2ccccc2)c1COc1ccc(/C=C/C(=O)N[C@@H](Cc2ccccc2)C(=O)O)cc1 [KS-042, (E)-(3-(4-((5-methyl-3-phenylisoxazol-4-yl)methoxy)phenyl)acryloyl)-L-phenylalanine] | 1.41 | 
9 | COC(=O)CCNC(=O)/C=C/c1ccc(OCc2c(-c3c(Cl)cccc3Cl)noc2C(C)C)cc1 [KS-043, methyl (E)-3-(3-(4-((3-(2,6-dichlorophenyl)-5-isopropylisoxazol-4-yl)methoxy)phenyl)acrylamido)propanoate] | 10 | superior to GW4064
10 | COC(=O)CCNC(=O)/C=C/c1ccc(OCc2c(-c3c(Cl)cccc3Cl)noc2C)cc1 [KS-044, methyl (E)-3-(3-(4-((3-(2,6-dichlorophenyl)-5-methylisoxazol-4-yl)methoxy)phenyl)acrylamido)propanoate] | 2.21 | 
11 | COC(=O)CCNC(=O)/C=C/c1ccc(OCc2c(-c3ccccc3)noc2C)cc1 [KS-045, methyl (E)-3-(3-(4-((5-methyl-3-phenylisoxazol-4-yl)methoxy)phenyl)acrylamido)propanoate] | 1.2 | 
12 | CC(C)c1onc(-c2c(Cl)cccc2Cl)c1COc1ccc(/C=C/C(=O)NCCC(=O)O)cc1 [KS-046, (E)-3-(3-(4-((3-(2,6-dichlorophenyl)-5-isopropylisoxazol-4-yl)methoxy)phenyl)acrylamido)propanoic acid] | 11.4 | superior to GW4064
13 | Cc1onc(-c2c(Cl)cccc2Cl)c1COc1ccc(/C=C/C(=O)NCCC(=O)O)cc1 [KS-047, (E)-3-(3-(4-((3-(2,6-dichlorophenyl)-5-methylisoxazol-4-yl)methoxy)phenyl)acrylamido)propanoic acid] | 3.04 | 
14 | Cc1onc(-c2ccccc2)c1COc1ccc(/C=C/C(=O)NCCC(=O)O)cc1 [KS-048, (E)-3-(3-(4-((5-methyl-3-phenylisoxazol-4-yl)methoxy)phenyl)acrylamido)propanoic acid] | 1.13 | 
15 | COC(=O)[C@@H](C)NC(=O)/C=C/c1ccc(OCc2c(-c3c(Cl)cccc3Cl)noc2C(C)C)cc1 [KS-049, methyl (E)-(3-(4-((3-(2,6-dichlorophenyl)-5-isopropylisoxazol-4-yl)methoxy)phenyl)acryloyl)-D-alaninate] | 9.55 | superior to GW4064
16 | COC(=O)[C@@H](C)NC(=O)/C=C/c1ccc(OCc2c(-c3c(Cl)cccc3Cl)noc2C)cc1 [KS-050, methyl (E)-(3-(4-((3-(2,6-dichlorophenyl)-5-methylisoxazol-4-yl)methoxy)phenyl)acryloyl)-D-alaninate] | 2 | 
17 | COC(=O)[C@@H](C)NC(=O)/C=C/c1ccc(OCc2c(-c3ccccc3)noc2C)cc1 [KS-051, methyl (E)-(3-(4-((5-methyl-3-phenylisoxazol-4-yl)methoxy)phenyl)acryloyl)-D-alaninate] | 1.34 | 
18 | CC(C)c1onc(-c2c(Cl)cccc2Cl)c1COc1ccc(/C=C/C(=O)N[C@H](C)C(=O)O)cc1 [KS-052, (E)-(3-(4-((3-(2,6-dichlorophenyl)-5-isopropylisoxazol-4-yl)methoxy)phenyl)acryloyl)-D-alanine] | 8.12 | superior to GW4064
19 | Cc1onc(-c2c(Cl)cccc2Cl)c1COc1ccc(/C=C/C(=O)N[C@H](C)C(=O)O)cc1 [KS-053, (E)-(3-(4-((3-(2,6-dichlorophenyl)-5-methylisoxazol-4-yl)methoxy)phenyl)acryloyl)-D-alanine] | 1.28 | 
20 | Cc1onc(-c2ccccc2)c1COc1ccc(/C=C/C(=O)N[C@H](C)C(=O)O)cc1 [KS-054, (E)-(3-(4-((5-methyl-3-phenylisoxazol-4-yl)methoxy)phenyl)acryloyl)-D-alanine] | 0.9 | 
